From PMC9835529, “Investigation of Novel Quinoline–Thiazole Derivatives as Antimicrobial Agents: In Vitro and In Silico Approaches” (ACS Omega, 2022)
In brackets after ≈: the same amount, converted by molar mass.

Experiments:
[1] = test system: NIH/3T3 cells; test: Cytotoxicity on NIH/3T3 healthy cell line; format: cell-based; conditions: Mus musculus, NIH3T3, 24 h incubation
Method: NIH/3T3 cells were incubated in Dulbecco’s modified Eagle’s medium (DMEM) (Sigma-Aldrich, St. Louis, MO), added with fetal calf serum, penicillin (100 IU/mL), streptomycin ([…]), and 7.5% NaHCO3 at 37 °C in a humidified atmosphere of 95% air and 5% CO2. NIH/3T3 cells were seeded into the 96-well plates at a density of 1 × 10^4 cells. After 24 h of incubating period, the culture media were removed, and test compounds were added. After 24 h of incubation period, colorimetric measurements were performed by a microplate reader (Biotek) at 540 nm. Inhibition % at all concentrations was determined using the formula below, and the IC50 values were calculated from a dose–response curve obtained by plotting the percentage inhibition versus the log concentration with the use of Microsoft Excel 2013.

[2] = test system: E. coli ATCC 25922; test: Antibacterial broth microdilution (CLSI M07-A9), MIC90; format: cell-based; conditions: Escherichia coli, ATCC25922
Source text: (§1) The broth microdilution procedure specified in the M07-A9 document of the Clinical and Laboratory Standards Institute (CLSI) was used for antibacterial study,[55] and the EDef 7.1 document published by EUCAST was used for the antifungal study.[56] For both activity studies, the detailed procedures were explained in previous studies.[57],[58]

[3] = test system: Staphylococcus aureus ATCC 6538; test: as above; format: cell-based; conditions: Staphylococcus aureus, ATCC6538; S. aureus ATCC 6538; read-out: MIC90
Source text: as §1

[4] = test system: Klebsiella pneumoniae NCTC 9633; test: as above; format: cell-based; conditions: NCTC9633, K. pneumoniae NCTC 9633
Source text: as §1

[5] = test system: Escherichia coli ATCC 35218; test: as above; format: cell-based; conditions: Escherichia coli, ATCC35218; E. coli ATCC 35218
Source text: as §1

[6] = test system: Salmonella typhimurium ATCC 13311; test: as above; format: cell-based; conditions: Salmonella enterica; S. typhimurium ATCC 13311
Source text: as §1

[7] = test system: methicillin-resistant S. aureus (MRSA) (clinical isolate); test: as above; format: cell-based; conditions: Staphylococcus aureus
Source text: as §1

[8] = test system: Candida albicans ATCC 24433; test: Anticandidal broth microdilution (EUCAST EDef 7.1), MIC90; format: cell-based; conditions: Candida albicans, ATCC24433, C. albicans ATCC 24433; read-out: MIC90
Source text: (§2) E. coli (ATCC 35218), E. coli (ATCC 25922), S. aureus (ATCC 6538), methicillin-resistant S. aureus (MRSA) (clinical isolate), S. typhimurium (ATCC 13311), and K. pneumoniae (NCTC 9633) cells for antibacterial effect, and C. albicans (ATCC 24433), C. glabrata (ATCC 90030), C. krusei (ATCC 6258), and C. parapsilosis (ATCC 22019) for the antifungal effect of the final compounds were used to determine the MIC90 values. The broth microdilution procedure specified in the M07-A9 document of the Clinical and Laboratory Standards Institute (CLSI) was used for antibacterial study,[55] and the EDef 7.1 document published by EUCAST was used for the antifungal study.[56] For both activity studies, the detailed procedures were explained in previous studies.[57],[58]

[9] = test system: Candida parapsilosis ATCC 22019; test: as above; format: cell-based; conditions: Lodderomyces parapsilosis, ATCC22019, C. parapsilosis ATCC 22019; read-out: MIC90
Source text: as §2

[10] = test system: Candida krusei ATCC 6258; test: as above; format: cell-based; conditions: Pichia kudriavzevii, ATCC6258, C. krusei ATCC 6258; read-out: MIC90
Source text: as §2

[11] = molecular target: T1, human aromatase enzyme (CYP19A) (Homo sapiens, UniProt P11511); test: Aromatase (CYP19A) Inhibitor Screening Kit (Fluorometric); format: biochemical
T1 construct: purchased Bio Vision
T1 sequence (P11511 1-503): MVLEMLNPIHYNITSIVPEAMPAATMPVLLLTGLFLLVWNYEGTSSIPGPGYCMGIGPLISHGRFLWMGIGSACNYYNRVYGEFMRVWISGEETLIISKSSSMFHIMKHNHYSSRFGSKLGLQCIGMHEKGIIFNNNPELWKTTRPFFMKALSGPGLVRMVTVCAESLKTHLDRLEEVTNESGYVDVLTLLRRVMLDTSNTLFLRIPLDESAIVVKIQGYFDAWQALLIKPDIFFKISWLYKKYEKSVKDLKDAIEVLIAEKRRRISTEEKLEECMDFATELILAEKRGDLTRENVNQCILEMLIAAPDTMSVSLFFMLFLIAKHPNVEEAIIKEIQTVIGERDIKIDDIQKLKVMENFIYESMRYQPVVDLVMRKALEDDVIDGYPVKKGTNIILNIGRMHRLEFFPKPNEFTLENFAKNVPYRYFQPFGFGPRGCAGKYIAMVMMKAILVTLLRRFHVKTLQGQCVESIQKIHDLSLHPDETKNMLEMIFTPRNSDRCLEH

[12] = test system: C. glabrata ATCC 90030; test: Anticandidal broth microdilution (EUCAST EDef 7.1), MIC90; format: cell-based, Candida glabrata; conditions: Nakaseomyces glabratus, ATCC90030, C. glabrata ATCC 90030
Source text: as §2

[13] = test system: Lanosterol 14α-demethylase (LMD, CYP51A1); test: LDM (CYP51A1) inhibition by LC-MS-MS quantification of ergosterol level; format: cell-based
Method: (§3) The activity of the target compounds was tested against Candida strains via the determination of ergosterol production.
(§4) Ergosterol level was determined using the extract of total sterols from C. albicans (and its other species) following the method described by Breivik and Owades.[63] Quantification of the ergosterol level in this extract was carried out by the recently described method.[58],[64]−[66] According to these described studies, in the current work, compounds 4b, 4e, 4f, and 4h–m were undertaken to investigate their action mechanism. Thus, the LC-MS-MS-based method that quantifies the ergosterol level was applied. […]. Ergosterol quantity in negative control samples was regarded as 100%. All concentrations were analyzed in quadruplicate, and the results were expressed as mean ± standard deviation (SD).

[14] = molecular target: T2, Lanosterol 14α-demethylase (LMD, CYP51A1) (Candida glabrata, UniProt P50859); test: as above; format: cell-based; conditions: C. glabrata; for inhibition at 0.06 µg/mL: 0.06 μg/mL; for inhibition at 0.06 µg/mL / inhibition at 0.24 µg/mL / inhibition at 0.98 µg/mL: read-out: CYP51A1 Inhibition%; for inhibition at 0.24 µg/mL: 0.24 μg/mL; for inhibition at 0.98 µg/mL: 0.98 μg/mL
T2 construct: tested against Candida strains via the determination of ergosterol production; endogenous in cells; host or cells: C. glabrata (ATCC 90030)
Method: as §3, §4

T2 sequence (P50859 whole entry): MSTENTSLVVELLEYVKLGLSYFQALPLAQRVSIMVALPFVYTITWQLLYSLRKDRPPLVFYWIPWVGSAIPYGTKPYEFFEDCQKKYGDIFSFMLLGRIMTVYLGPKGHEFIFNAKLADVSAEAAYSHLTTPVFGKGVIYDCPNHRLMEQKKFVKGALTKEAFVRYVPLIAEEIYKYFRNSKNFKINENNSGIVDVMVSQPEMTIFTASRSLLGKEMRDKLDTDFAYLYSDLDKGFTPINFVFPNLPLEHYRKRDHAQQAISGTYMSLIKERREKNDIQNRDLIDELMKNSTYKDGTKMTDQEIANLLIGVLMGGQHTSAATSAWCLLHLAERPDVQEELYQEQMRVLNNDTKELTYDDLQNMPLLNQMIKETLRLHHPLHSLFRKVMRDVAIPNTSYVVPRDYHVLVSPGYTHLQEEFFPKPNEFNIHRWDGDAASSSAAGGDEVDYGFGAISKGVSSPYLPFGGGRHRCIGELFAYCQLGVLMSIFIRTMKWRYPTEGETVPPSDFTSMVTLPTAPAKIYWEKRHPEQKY

Structure (SMILES) | IC50 [1] | MIC90 [2] | MIC90 [3] | MIC90 [4] | MIC90 [5] | MIC90 [6] | MIC90 [7] | MIC90 [8] | MIC90 [9] | MIC90 [10] | melting point | MIC90 [12] | effect on ergosterol production / LMD enzyme inhibition (in words) [14] | inhibition at 0.06 µg/mL [14] | inhibition at 0.24 µg/mL [14] | inhibition at 0.98 µg/mL [14] | also measured
COc1cccc(-c2csc(N/N=C/c3cc4cc(OC)ccc4nc3Cl)n2)c1 [4k] | 12 ± 0.44 µM | > 1000 µg/mL | > 1000 µg/mL | > 1000 µg/mL | > 1000 µg/mL | > 1000 µg/mL | > 1000 µg/mL | 1.95 µg/mL (≈ 4.59 µM) | 1.95 µg/mL (≈ 4.59 µM) | 1.95 µg/mL (≈ 4.59 µM) | 217 to 220 °C | 1.95 µg/mL (≈ 4.59 µM) | – | – | – | – | IC50 [11]: 0.038 ± 0.001 µM; effect on ergosterol production / LMD enzyme inhibition (in words) ([13]; C. parapsilosis): did not decrease the ergosterol production compared to the standard drugs; CYP51A1 Inhibition% ([13]; C. parapsilosis, 0.06 μg/mL): 11.449 ± 0.518%; CYP51A1 Inhibition% ([13]; C. parapsilosis, 0.24 μg/mL): 15.662 ± 0.616%; CYP51A1 Inhibition% ([13]; C. parapsilosis, 0.98 μg/mL): 17.437 ± 0.861%
COc1ccc2nc(Cl)c(/C=N/Nc3nc(-c4cccc([N+](=O)[O-])c4)cs3)cc2c1 [4i] | 8.54 ± 0.26 µM | > 1000 µg/mL | > 1000 µg/mL | > 1000 µg/mL | > 1000 µg/mL | > 1000 µg/mL | > 1000 µg/mL | 1.95 µg/mL (≈ 4.43 µM) | 1.95 µg/mL (≈ 4.43 µM) | 1.95 µg/mL (≈ 4.43 µM) | 212 to 214 °C | 1.95 µg/mL (≈ 4.43 µM) | – | – | – | – | IC50 [11]: 0.033 ± 0.001 µM; effect on ergosterol production / LMD enzyme inhibition (in words) ([13]; C. krusei): did not decrease the ergosterol production compared to the standard drugs; CYP51A1 Inhibition% ([13]; C. krusei, 0.06 μg/mL): 11.662 ± 0.479%; CYP51A1 Inhibition% ([13]; C. krusei, 0.24 μg/mL): 14.178 ± 0.655%; CYP51A1 Inhibition% ([13]; C. krusei, 0.98 μg/mL): 18.361 ± 0.767%
COc1ccc2nc(Cl)c(/C=N/Nc3nc(-c4ccc(C#N)cc4)cs3)cc2c1 [4e] | > 1000 µM | > 1000 µg/mL | > 1000 µg/mL | > 1000 µg/mL | > 1000 µg/mL | > 1000 µg/mL | > 1000 µg/mL | 3.91 µg/mL (≈ 9.31 µM) | 3.91 µg/mL (≈ 9.31 µM) | 62.5 µg/mL (≈ 149 µM) | 240 to 242 °C | < 0.06 µg/mL | did not decrease the ergosterol production compared to the standard drugs | 16.7 ± 0.774% | 18.3 ± 0.785% | 21.7 ± 0.955% | –
COc1ccc2nc(Cl)c(C=NNc3nc(-c4ccc(Cl)cc4)cs3)cc2c1 [4b] | 14.7 ± 0.34 µM | > 1000 µg/mL | > 1000 µg/mL | > 1000 µg/mL | > 1000 µg/mL | > 1000 µg/mL | > 1000 µg/mL | > 1000 µg/mL | 31.2 µg/mL (≈ 72.8 µM) | 31.2 µg/mL (≈ 72.8 µM) | 195 to 197 °C | < 0.06 µg/mL | showed their anticandidal activity via LMD enzyme inhibition | 36.2 ± 0.965% | 51.8 ± 1.61% | 60.2 ± 2.1% | –
COc1ccc2nc(Cl)c(C=NNc3nc(-c4ccc(C)cc4)cs3)cc2c1 [4f] | > 1000 µM | > 1000 µg/mL | > 1000 µg/mL | > 1000 µg/mL | > 1000 µg/mL | > 1000 µg/mL | > 1000 µg/mL | > 1000 µg/mL | 3.91 µg/mL (≈ 9.56 µM) | 3.91 µg/mL (≈ 9.56 µM) | 194 to 196 °C | < 0.06 µg/mL | showed their anticandidal activity via LMD enzyme inhibition | 42.1 ± 1.56% | 53.8 ± 2.39% | 65.1 ± 1.68% | –
COc1ccc2nc(Cl)c(C=NNc3nc(-c4cccc(Cl)c4)cs3)cc2c1 [4h] | 14.5 ± 0.57 µM | > 1000 µg/mL | > 1000 µg/mL | > 1000 µg/mL | > 1000 µg/mL | > 1000 µg/mL | > 1000 µg/mL | > 1000 µg/mL | 125 µg/mL (≈ 291 µM) | ≤ 0.06 µg/mL | 200 to 202 °C | 31.2 µg/mL (≈ 72.8 µM) | – | – | – | – | effect on ergosterol production / LMD enzyme inhibition (in words) ([13]; C. krusei): showed their anticandidal activity via LMD enzyme inhibition; CYP51A1 Inhibition% ([13]; C. krusei, 0.06 μg/mL): 45.530 ± 0.961%; CYP51A1 Inhibition% ([13]; C. krusei, 0.24 μg/mL): 60.184 ± 1.985%; CYP51A1 Inhibition% ([13]; C. krusei, 0.98 μg/mL): 67.651 ± 1.736%
COc1ccc2nc(Cl)c(/C=N/Nc3nc(-c4ccc([N+](=O)[O-])cc4)cs3)cc2c1 [4c] | 31.6 ± 0.87 µM | > 1000 µg/mL | > 1000 µg/mL | > 1000 µg/mL | > 1000 µg/mL | > 1000 µg/mL | > 1000 µg/mL | > 1000 µg/mL | 31.2 µg/mL (≈ 71 µM) | 31.2 µg/mL (≈ 71 µM) | 245 to 253 °C | 62.5 µg/mL (≈ 142 µM) | – | – | – | – | –
